Laboratory results taken from US6737383B1, “Herbicidal oxadiazolidines” (priority 1999, dated 2004).

Key:
surinam grass = experiment: Test B pre/postemergence surinam grass; format: in vivo, Brachiaria decumbens; conditions: for Plant response rating, B. signalgrass: Postemergence
How it was run: (§1)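 Herbicidal effect was estimated by eye on a ten-point control scale after plants spent twelve to sixteen days in a greenhouse following soil or foliar treatment. Foliar sprays targeted plants at one to four leaves; all doses were formulated in a non-phytotoxic solvent with surfactant.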

morningglory = experiment: Test B pre/postemergence morningglory; format: in vivo, Ipomoea hederacea
How it was run: as §1

blackgrass = experiment: Test B pre/postemergence blackgrass; format: in vivo, Alopecurus myosuroides
How it was run: as §1

crabgrass = experiment: Test B pre/postemergence crabgrass; format: in vivo, Digitaria sanguinalis
How it was run: as §1

purple nutsedge = experiment: Test B pre/postemergence purple nutsedge; format: in vivo, Cyperus rotundus; conditions: for Plant response rating, Nutsedge: Postemergence, scale of 0 to 10 where 0 is no effect and 10 is complete control
How it was run: as §1

velvetleaf = experiment: Test B pre/postemergence velvetleaf; format: in vivo, Abutilon theophrasti
How it was run: as §1

corn = experiment: Test B pre/postemergence corn; format: in vivo, Zea mays
How it was run: as §1

bedstraw = experiment: Test B pre/postemergence bedstraw; format: in vivo, Galium aparine
How it was run: as §1

wild oat = experiment: Test B pre/postemergence wild oat; format: in vivo, Avena fatua
How it was run: as §1

soybean = experiment: Test B pre/postemergence soybean; format: in vivo, Glycine max
How it was run: as §1

sugar beet = experiment: Test B pre/postemergence sugar beet; format: in vivo, Beta vulgaris
How it was run: as §1

rape = experiment: Test B pre/postemergence rape; format: in vivo, Brassica napus
How it was run: as §1

pigweed = experiment: Test B pre/postemergence pigweed; format: in vivo, Amaranthus retroflexus
How it was run: as §1

wheat = experiment: Test B pre/postemergence wheat; format: in vivo, Triticum aestivum
How it was run: as §1

cocklebur = experiment: Test B pre/postemergence cocklebur; format: in vivo, Xanthium strumarium
How it was run: as §1

giant foxtail = experiment: Test B pre/postemergence giant foxtail; format: in vivo, Setaria faberii
How it was run: as §1

[1] = Preemergence, Rate 62 g/ha, scale 0 to 10 (0 no effect, 10 complete control)
[2] = Preemergence, Rate 125 g/ha, scale 0 to 10, 0 is no effect, 10 is complete control
[3] = Preemergence, Rate 500 g/ha, scale of 0 to 10 where 0 is no effect and 10 is complete control
[4] = Postemergence, Rate 62 g/ha, scale of 0 to 10, 0 is no effect, 10 is complete control
[5] = Postemergence, Rate 125 g/ha, scale 0 to 10, 0 is no effect, 10 is complete control
[6] = Postemergence, Rate 500 g/ha, scale of 0 to 10 where 0 is no effect and 10 is complete control
[7] = Rate 250 g/ha, Postemergence, scale of 0 to 10 where 0 is no effect and 10 is complete control

In the case of `COCn1c(=O)on(C(=O)N(c2ccccc2)C(C)C)c1=O` [Compound 562], the “Plant response rating, B. signalgrass” value (surinam grass; Rate 500 g/ha, scale of 0 to 10 where 0 is no effect and 10 is complete control) is reported as 7, the “B. signalgrass plant response rating” value (surinam grass; [1]) is reported as 5 and the “B. signalgrass plant response rating” value (surinam grass; [2]) is reported as 8. For the same compound, the “B. signalgrass plant response rating (0 to 10 scale, 0 is no effect, 10 is complete control)” value (surinam grass; Preemergence, Rate 250 g/ha) was 10, the “B. signalgrass plant response rating” value (surinam grass; [3]) was 10 and the “Plant response rating, B. signalgrass” value (surinam grass; Rate 250 g/ha, scale of 0 to 10 where 0 is no effect and 10 is complete control) was 5. For the same compound, the “Morningglory plant response rating” value (morningglory; [4]) was 4, the “Morningglory plant response rating” value (morningglory; [5]) was 4 and the “Plant response rating, Morningglory” value (morningglory; [6]) was 10. For the same compound, the “Morningglory plant response rating” value (morningglory; [1]) was 0, the “Morningglory plant response rating” value (morningglory; [2]) was 0 and the “Morningglory plant response rating (0 to 10 scale)” value (morningglory; Preemergence, Rate 250 g/ha) was 0. For the same compound, the “Morningglory plant response rating” value (morningglory; [3]) was 8, the “Plant response rating, Morningglory” value (morningglory; [7]) was 10 and the “Blackgrass plant response rating” value (blackgrass; [4]) was 3. The “Blackgrass plant response rating” value (blackgrass; [5]) was 3, the “Plant response rating, Blackgrass” value (blackgrass; [6]) was 3 and the “Blackgrass plant response rating” value (blackgrass; [1]) was 4. For the same compound, the “Blackgrass plant response rating” value (blackgrass; [2]) was 10, the “Blackgrass plant response rating (0 to 10 scale)” value (blackgrass; Preemergence, Rate 250 g/ha) was 10 and the “Blackgrass plant response rating” value (blackgrass; [3]) was 10. For the same compound, the “Plant response rating, Blackgrass” value (blackgrass; [7]) was 3, the “Crabgrass plant response rating” value (crabgrass; [4]) was 7 and the “Crabgrass plant response rating” value (crabgrass; [5]) was 5. The “Plant response rating, Crabgrass” value (crabgrass; [6]) was 10, the “Crabgrass plant response rating” value (crabgrass; [1]) was 8 and the “Crabgrass plant response rating” value (crabgrass; [2]) was 8. For the same compound, the “Crabgrass plant response rating (0 to 10 scale)” value (crabgrass; Preemergence, Rate 250 g/ha) was 10, the “Crabgrass plant response rating” value (crabgrass; [3]) was 10 and the “Plant response rating, Crabgrass” value (crabgrass; [7]) was 7. For the same compound, the “Plant response rating, Nutsedge” value (purple nutsedge; Rate 500 g/ha) was 5, the “Nutsedge plant response rating” value (purple nutsedge; [1]) was 0 and the “Nutsedge plant response rating” value (purple nutsedge; [2]) was 0. For the same compound, the “Nutsedge plant response rating (0 to 10 scale)” value (purple nutsedge; Preemergence, Rate 250 g/ha) was 0, the “Plant response rating, Nutsedge” value (purple nutsedge; Rate 250 g/ha) was 5 and the “Velvetleaf plant response rating” value (velvetleaf; [4]) was 3. For the same compound, the “Plant response rating, Velvetleaf” value (velvetleaf; [6]) was 6, the “Velvetleaf plant response rating” value (velvetleaf; [1]) was 0 and the “Velvetleaf plant response rating” value (velvetleaf; [2]) was 0. For the same compound, the “Velvetleaf plant response rating (0 to 10 scale)” value (velvetleaf; Preemergence, Rate 250 g/ha) was 0, the “Velvetleaf plant response rating” value (velvetleaf; [3]) was 7 and the “Plant response rating, Velvetleaf” value (velvetleaf; [7]) was 6. The “Corn plant response rating” value (corn; [4]) was 0, the “Corn plant response rating” value (corn; [5]) was 3 and the “Plant response rating, Corn” value (corn; [6]) was 7. For the same compound, the “Corn plant response rating” value (corn; [1]) was 0, the “Corn plant response rating” value (corn; [2]) was 3 and the “Corn plant response rating (0 to 10 scale)” value (corn; Preemergence, Rate 250 g/ha) was 9. The “Corn plant response rating” value (corn; [3]) was 9, the “Plant response rating, Corn” value (corn; [7]) was 7 and the “Bedstraw plant response rating” value (bedstraw; [1]) was 0. The “Bedstraw plant response rating” value (bedstraw; [2]) was 0, the “Bedstraw plant response rating (0 to 10 scale)” value (bedstraw; Preemergence, Rate 250 g/ha) was 0 and the “Bedstraw plant response rating” value (bedstraw; [3]) was 0. For the same compound, the “Plant response rating, Bedstraw” value (bedstraw; [7]) was 4, the “Wild oats plant response rating” value (wild oat; [4]) was 0 and the “Plant response rating, Wild oats” value (wild oat; [6]) was 4. The “Wild oats plant response rating” value (wild oat; [1]) was 4, the “Wild oats plant response rating” value (wild oat; [2]) was 9 and the “Wild oats plant response rating (0 to 10 scale)” value (wild oat; Preemergence, Rate 250 g/ha) was 10. The “Wild oats plant response rating” value (wild oat; [3]) was 10, the “Plant response rating, Wild oats” value (wild oat; [7]) was 0 and the “Soybean plant response rating” value (soybean; [4]) was 3. For the same compound, the “Plant response rating, Soybean” value (soybean; [6]) was 5, the “Soybean plant response rating” value (soybean; [1]) was 0 and the “Soybean plant response rating” value (soybean; [2]) was 0. The “Soybean plant response rating (0 to 10 scale)” value (soybean; Preemergence, Rate 250 g/ha) was 9, the “Soybean plant response rating” value (soybean; [3]) was 9 and the “Plant response rating, Soybean” value (soybean; [7]) was 4. The “Sugarbeets plant response rating” value (sugar beet; [4]) was 3, the “Plant response rating, Sugarbeets” value (sugar beet; [6]) was 5 and the “Sugarbeets plant response rating” value (sugar beet; [1]) was 6. The “Sugarbeets plant response rating” value (sugar beet; [2]) was 8, the “Sugarbeets plant response rating (0 to 10 scale)” value (sugar beet; Preemergence, Rate 250 g/ha) was 9 and the “Sugarbeets plant response rating” value (sugar beet; [3]) was 9. The “Plant response rating, Sugarbeets” value (sugar beet; [7]) was 3, the “Rape plant response rating” value (rape; [4]) was 0 and the “Rape plant response rating” value (rape; [5]) was 0. The “Plant response rating, Rape” value (rape; [6]) was 7, the “Rape plant response rating” value (rape; [1]) was 0 and the “Rape plant response rating” value (rape; [2]) was 6. For the same compound, the “Rape plant response rating (0 to 10 scale)” value (rape; Preemergence, Rate 250 g/ha) was 10, the “Rape plant response rating” value (rape; [3]) was 10 and the “Plant response rating, Rape” value (rape; [7]) was 0. For the same compound, the “Redroot pigweed plant response rating” value (pigweed; [4]) was 9, the “Plant response rating, Redroot pigweed” value (pigweed; [6]) was 9 and the “Redroot pigweed plant response rating” value (pigweed; [1]) was 10. For the same compound, the “Redroot pigweed plant response rating” value (pigweed; [2]) was 10, the “Redroot pigweed plant response rating (0 to 10 scale)” value (pigweed; Preemergence, Rate 250 g/ha) was 10 and the “Redroot pigweed plant response rating” value (pigweed; [3]) was 10. For the same compound, the “Plant response rating, Redroot pigweed” value (pigweed; [7]) was 9, the “Wheat plant response rating” value (wheat; [4]) was 0 and the “Plant response rating, Wheat” value (wheat; [6]) was 5. The “Wheat plant response rating” value (wheat; [1]) was 3, the “Wheat plant response rating” value (wheat; [2]) was 9 and the “Wheat plant response rating (0 to 10 scale)” value (wheat; Preemergence, Rate 250 g/ha) was 9. The “Wheat plant response rating” value (wheat; [3]) was 9, the “Plant response rating, Wheat” value (wheat; [7]) was 7 and the “Cocklebur plant response rating” value (cocklebur; [4]) was 2. The “Cocklebur plant response rating” value (cocklebur; [5]) was 2, the “Plant response rating, Cocklebur” value (cocklebur; [6]) was 2 and the “Cocklebur plant response rating” value (cocklebur; [1]) was 0. For the same compound, the “Cocklebur plant response rating” value (cocklebur; [2]) was 0, the “Cocklebur plant response rating (0 to 10 scale)” value (cocklebur; Preemergence, Rate 250 g/ha) was 0 and the “Cocklebur plant response rating” value (cocklebur; [3]) was 2. The “Plant response rating, Cocklebur” value (cocklebur; [7]) was 2, the “Giant foxtail plant response rating” value (giant foxtail; [4]) was 7 and the “Giant foxtail plant response rating” value (giant foxtail; [5]) was 7. For the same compound, the “Plant response rating, Giant foxtail” value (giant foxtail; [6]) was 8, the “Giant foxtail plant response rating” value (giant foxtail; [1]) was 4 and the “Giant foxtail plant response rating” value (giant foxtail; [2]) was 9. For the same compound, the “Giant foxtail plant response rating (0 to 10 scale)” value (giant foxtail; Preemergence, Rate 250 g/ha) was 8, the “Giant foxtail plant response rating” value (giant foxtail; [3]) was 8 and the “Plant response rating, Giant foxtail” value (giant foxtail; [7]) was 8.
